Assay results: patent US8703811B2, “Small molecule inhibitors of Plasmodium falciparum dihydroorotate dehydrogenase” (Genzyme Corporation, priority 2008, dated 2014)

Columns and labels:
Hepatic clearance, rat = type: in vitro ADME
Excerpt: (§1) Clearance of drug by the liver will depend on the rate of delivery of drug to the liver (the hepatic blood flow) and on the efficiency of removal of drug which is presented to it (the extraction ratio). The hepatic clearance of compounds can be determined by standard methods known in the art. Such methods are described in, for example, Naritomi, Y; Terashita, S; Kagayama, A; Sugiyama, Y. “Utility of Hepatocytes in Predicting Drug Metabolism: Comparison of Hepatic Intrinsic Clearance in Rats and Humans in Vivo and in Vitro.” 2003, 31 (5): pages 580-588.

Cytochrome P450 3A4 = Cytochrome P450 3A4 (Homo sapiens (Human), UniProt P08684); assay: Cytochrome P450 inhibition, 3A4; type: in vitro ADME
Excerpt: (§2) Rapid screening for cytochrome P450 inhibitors is part of the current paradigm for avoiding development of drugs likely to give clinical pharmacokinetic drug-drug interactions and associated toxicities. There are commercially available assays for such screenings. For example, BD Biosciences (http://www.bdbiosciences.com/index.shtml) provides a technical bulletin describing a detailed, step-by-step procedure for the performance of the high throughput cytochrome P450 inhibition testing method.

Cytochrome P450 1A2 = Cytochrome P450 1A2 (Homo sapiens (Human), UniProt P05177); type: in vitro ADME
Excerpt: as §2

Hepatic clearance, human = type: in vitro ADME
Excerpt: as §1

pfDHODH = pfDHODH (Plasmodium falciparum (isolate 3D7), UniProt Q08210); assay: pfDHODH activity with FeCy as electron acceptor; settings: read-out: % Inhibition of Product Formation Rate with 50 μM Inhibitor, FeCy
Experimental: Inhibitors of DHODH, as classified by the chromogen reduction assay, were also evaluated for activity using FeCy as an electron acceptor. A final concentration of 5-50 nM DHODH, 200 μM L-DHO and 100 μM FeCy in Buffer C was used in this assay. Both the reduction of FeCy and the formation of orotate was monitored at 420 nm (ε420=1 mM^−1 cm^−1) and 290 nm (ε280=2 mM^−1 cm^−1), respectively, noting that two molecules of FeCy are reduced for one molecule of L-DHO. As with the previous assays, the reaction was performed at 25° C. and initiated with the addition of enzyme.

[1] = tested on: P. falciparum D10-scDHODH; assay: Inhibition of transgenic D10-scDHODH parasites, [3H]-hypoxanthine uptake; type: cell-based
Summary of the method: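 P. falciparum D10 transfected with full-length scDHODH (no GFP tag) and kept under WR99210 selection. Growth inhibition measured as relative reduction of [3H]-hypoxanthine uptake, and data fitted by non-linear regression to relative growth velocity.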

pvDHODH = pvDHODH (Plasmodium vivax, UniProt A5K1N1); assay: DCIP assay, pvDHODH; type: biochemical, P. vivax; settings: 200 μM L-DHO, 18 μM CoQD, 100 μM DCIP, 20 nM enzyme
Excerpt: (§3) Type 2 DHODH activity was monitored with either the direct assay measuring the formation of orotate or via a chromogen reduction assay using DCIP. Although the extinction coefficient and absorption wavelength are preferable for the chromogen reduction assay, the inorganic electron acceptor DCIP can be utilized by DHODH as the final electron acceptor in lieu of CoQn when the endogenous substrate is at a low concentration. As such, the direct assay was used to measure the binding affinity of pfDHODH to CoQD and L-DHO. The enzymatic reaction was performed by varying the L-DHO concentration (1-400 μM) or CoQD concentration (1-200 μM) while keeping the other substrate constant and in excess. The formation of orotate was measured continuously at 296 nm (ε296=4.3 mM^−1 cm^−1). Inhibition of DHODH by small molecules was evaluated using the chromogen based assay with a final substrate concentration of 200 μM L-DHO, 18 μM CoQD, and 100 μM DCIP, unless otherwise noted. The reduction of DCIP was monitored at 600 nm (ε600=18.8 mM^−1 cm^−1).
(§4) Substrate specificity and enzyme inhibition data was analyzed with GraphPad Prism Version 4 for Windows (GraphPad Software). Kinetic constants were calculated by non-linear regression fitting of the data to the Michaelis-Menten equation [36]. IC50 values were determined by non-linear regression fitting of the data to Equation 1: […]

scDHODH = scDHODH (Saccharomyces cerevisiae (strain ATCC 204508 / S288c) (Baker's yeast), UniProt P28272); assay: DCIP assay with fumarate, scDHODH; type: biochemical; settings: 115 μM fumarate in lieu of CoQD
P. falciparum D10 = assay: Inhibition of in vitro P. falciparum culture, [3H]-hypoxanthine uptake, D10; type: cell-based; settings: Plasmodium falciparum, D10, Erythrocyte; [3H]-hypoxanthine uptake by parasite infected erythrocytes; read-out: D10 IC50
Summary of the method: (§5)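 Parasite growth inhibition measured as relative reduction of [3H]-hypoxanthine uptake in in vitro cultures. Values from non-linear regression fit, using relative growth velocity in place of product-formation rate.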

pbDHODH = pbDHODH (Plasmodium berghei, UniProt A0A509AEH5); assay: DCIP assay, pbDHODH; type: biochemical, P. berghei; settings: 200 μM L-DHO, 18 μM CoQD, 100 μM DCIP, 20 nM enzyme
Excerpt: as §3, §4

P. falciparum HB3 = assay: Inhibition of in vitro P. falciparum culture, [3H]-hypoxanthine uptake, HB3; type: cell-based; settings: Plasmodium falciparum, HB3, Erythrocyte; [3H]-hypoxanthine uptake by parasite infected erythrocytes; read-out: HB3 IC50
Summary of the method: as §5

Chain of Cytochrome P450 1A2 (P05177 whole entry): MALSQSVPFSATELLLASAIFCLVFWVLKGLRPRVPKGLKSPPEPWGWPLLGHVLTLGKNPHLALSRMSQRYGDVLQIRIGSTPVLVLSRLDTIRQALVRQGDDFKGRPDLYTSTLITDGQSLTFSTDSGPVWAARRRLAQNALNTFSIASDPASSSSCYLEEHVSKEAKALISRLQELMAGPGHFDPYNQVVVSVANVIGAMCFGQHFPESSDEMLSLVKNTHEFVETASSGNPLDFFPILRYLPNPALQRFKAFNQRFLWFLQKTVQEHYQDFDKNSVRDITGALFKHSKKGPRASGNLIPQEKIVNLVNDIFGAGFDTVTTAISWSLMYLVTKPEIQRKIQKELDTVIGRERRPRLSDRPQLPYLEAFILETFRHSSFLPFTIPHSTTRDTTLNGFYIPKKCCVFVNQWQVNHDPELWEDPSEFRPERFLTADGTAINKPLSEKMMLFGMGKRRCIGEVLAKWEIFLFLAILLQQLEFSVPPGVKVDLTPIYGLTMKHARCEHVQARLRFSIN
Chain of Cytochrome P450 3A4 (P08684 whole entry): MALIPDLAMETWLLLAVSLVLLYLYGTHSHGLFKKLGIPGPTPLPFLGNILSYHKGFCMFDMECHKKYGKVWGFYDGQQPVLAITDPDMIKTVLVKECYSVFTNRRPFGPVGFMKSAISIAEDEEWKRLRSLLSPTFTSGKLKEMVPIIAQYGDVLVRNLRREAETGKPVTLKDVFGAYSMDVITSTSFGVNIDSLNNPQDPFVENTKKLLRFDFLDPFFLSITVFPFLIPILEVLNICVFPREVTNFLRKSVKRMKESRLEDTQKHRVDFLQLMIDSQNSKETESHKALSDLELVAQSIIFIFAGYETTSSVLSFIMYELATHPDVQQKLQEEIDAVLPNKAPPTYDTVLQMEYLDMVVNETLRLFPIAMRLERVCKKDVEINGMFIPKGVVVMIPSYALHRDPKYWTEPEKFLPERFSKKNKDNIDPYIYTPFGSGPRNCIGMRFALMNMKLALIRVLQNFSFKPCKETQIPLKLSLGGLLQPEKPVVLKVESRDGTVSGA
Chain of pfDHODH (Q08210 159-565 limits assumed): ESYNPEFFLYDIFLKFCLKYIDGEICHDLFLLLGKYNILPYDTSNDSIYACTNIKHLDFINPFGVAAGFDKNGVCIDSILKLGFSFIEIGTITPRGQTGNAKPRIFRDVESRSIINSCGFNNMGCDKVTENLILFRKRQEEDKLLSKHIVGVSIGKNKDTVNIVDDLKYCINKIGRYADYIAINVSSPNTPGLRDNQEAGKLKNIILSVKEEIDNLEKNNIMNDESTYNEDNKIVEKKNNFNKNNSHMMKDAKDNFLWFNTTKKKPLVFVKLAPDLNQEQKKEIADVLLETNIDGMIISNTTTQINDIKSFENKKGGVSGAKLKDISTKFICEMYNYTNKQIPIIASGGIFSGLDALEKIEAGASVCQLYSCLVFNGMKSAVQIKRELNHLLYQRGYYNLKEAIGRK
Chain of scDHODH (P28272 whole entry): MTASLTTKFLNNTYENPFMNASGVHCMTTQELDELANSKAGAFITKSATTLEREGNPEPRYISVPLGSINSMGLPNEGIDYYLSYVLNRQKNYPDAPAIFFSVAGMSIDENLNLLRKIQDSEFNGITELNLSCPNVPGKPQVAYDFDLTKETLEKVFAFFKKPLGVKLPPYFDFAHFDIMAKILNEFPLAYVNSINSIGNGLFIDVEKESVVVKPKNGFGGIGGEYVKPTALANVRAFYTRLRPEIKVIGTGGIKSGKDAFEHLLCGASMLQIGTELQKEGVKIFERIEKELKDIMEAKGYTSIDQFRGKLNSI
Chain of pbDHODH (A0A509AEH5 1-517): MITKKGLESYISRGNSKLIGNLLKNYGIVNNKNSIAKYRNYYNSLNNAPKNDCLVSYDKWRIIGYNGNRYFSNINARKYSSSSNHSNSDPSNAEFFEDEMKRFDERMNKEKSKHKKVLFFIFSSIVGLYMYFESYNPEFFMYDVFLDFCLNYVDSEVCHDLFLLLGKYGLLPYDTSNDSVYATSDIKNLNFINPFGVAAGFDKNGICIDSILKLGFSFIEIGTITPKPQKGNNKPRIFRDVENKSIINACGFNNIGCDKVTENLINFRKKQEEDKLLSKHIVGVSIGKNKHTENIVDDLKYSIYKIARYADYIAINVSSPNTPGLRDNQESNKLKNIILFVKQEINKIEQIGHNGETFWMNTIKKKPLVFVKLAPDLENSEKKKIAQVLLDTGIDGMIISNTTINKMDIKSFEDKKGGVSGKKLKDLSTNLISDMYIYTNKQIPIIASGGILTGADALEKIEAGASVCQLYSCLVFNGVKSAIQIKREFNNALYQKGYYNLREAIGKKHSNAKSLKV
Chain of pvDHODH (A5K1N1 1-572): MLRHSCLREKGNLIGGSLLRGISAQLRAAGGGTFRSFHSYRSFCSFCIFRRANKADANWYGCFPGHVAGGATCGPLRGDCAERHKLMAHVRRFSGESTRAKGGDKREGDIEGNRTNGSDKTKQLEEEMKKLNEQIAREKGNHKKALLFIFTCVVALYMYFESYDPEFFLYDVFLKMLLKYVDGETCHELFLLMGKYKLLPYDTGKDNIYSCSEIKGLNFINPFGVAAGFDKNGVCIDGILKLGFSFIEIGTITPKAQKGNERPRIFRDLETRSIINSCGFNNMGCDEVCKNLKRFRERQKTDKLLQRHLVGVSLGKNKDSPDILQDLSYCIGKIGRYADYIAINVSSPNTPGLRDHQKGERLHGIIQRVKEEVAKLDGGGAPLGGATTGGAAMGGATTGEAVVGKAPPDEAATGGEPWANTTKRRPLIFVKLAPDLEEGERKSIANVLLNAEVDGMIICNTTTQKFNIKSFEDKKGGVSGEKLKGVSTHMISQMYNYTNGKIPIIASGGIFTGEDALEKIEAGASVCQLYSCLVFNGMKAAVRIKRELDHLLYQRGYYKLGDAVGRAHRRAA

Compound	microsomal CLint (Hepatic clearance, rat) [µL/min/mg]	Cytochrome P450 Inhibition, 3A4 (Cytochrome P450 3A4) [in 3A4 μM]	Cytochrome P450 Inhibition, 1A2 (Cytochrome P450 1A2) [in 1A2 μM]	microsomal CLint (Hepatic clearance, human) [µL/min/mg]	inhibition at 50 µM (pfDHODH) [%]	IC50 ([1]; Plasmodium falciparum, D10, read-out: D10-scDHODH IC50) [nM]	efficacy against D10-scDHODH strain compared to D10 parent strain ([1]; dose-effect curves, FIG. 5)	IC50 (pvDHODH) [nM]	IC50 (scDHODH) [nM]	IC50 (P. falciparum D10) [nM]	IC50 (pbDHODH) [nM]	IC50 (P. falciparum HB3) [nM]
CCCNC(=O)c1ccc(-n2c(C)nc3ccccc32)s1 [Compound 12, 5-(2-methyl-1H-benzo[d]imidazol-1-yl)-N-propylthiophene-2-carboxamide]	102	>5.0	>5.0	33	–	–	–	–	–	–	–	–
CCCNC(=O)c1ccc(-n2cnc3ccccc32)s1 [Compound 11, 5-(1H-benzo[d]imidazol-1-yl)-N-propylthiophene-2-carboxamide]	> 119	>5.0	>5.0	49	–	–	–	–	–	–	–	–
CCCNC(=O)c1ccc(-n2c(C)cc3ccccc32)s1 [Compound 1, 5-(2-methyl-1H-indol-1-yl)-N-propylthiophene-2-carboxamide]	–	–	–	–	31	> 10000	significantly reduced	420 ± 20	> 10000	610	60 ± 7	470
